In data set [1] the test system is HEK293/CRE-Luc cells. Description: Luciferase reporter assay, HEK293/CRE-Luc cells without hGLP1R (Example 11). Type of data set: cell-based, human. The following applies: Table 11; Experiment A; no hGLP1R expression. The essentials: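 Counter-screen in HEK293 cells carrying CRE-driven firefly luciferase without hGLP1R; 3-fold serial dilutions of payloads or linker-payloads at 0.2% final DMSO, 4–6 h.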
For orientation: Reporter assays use an easily measured gene product as a stand-in for the process of interest.

In data set [2] the target is T1, human GLP1R (Homo sapiens, UniProt P43220). Description: CRE-luciferase reporter assay, HEK293/Myc-hGLP1R/Cre-Luc (Example 9). It counts as cell-based. More on the design: engineered to express full-length human GLP1R, cynomolgus GLP1R; expressed in transfected cells; host or cells: HEK293/CRE-Luc. The procedure:
To test the activity of GLP1R agonist payloads and GLP1R agonist linker-payloads (LPs) in vitro, a cell-based cAMP responsive luciferase reporter assay was developed.
Cells were incubated overnight at 37° C. in 5% CO2. […] Plates were incubated for 5.5 h at 37° C. in 5% CO2. For end-point measurement, 100 μL/well of One-Glo reagent (Promega, #E6051) was added and plates were kept at room temperature for 5-10 minutes. Luciferase activity was measured on Envision Multilabel Plate Reader (Perkin Elmer) in Luminescent mode. The relative light units (RLU) values were obtained and the results were analyzed using nonlinear regression with GraphPad Prism software (GraphPad).

A short description of data set [3]: Plasma stability of payloads and linker-payloads, human plasma. Type of data set: in vitro ADME. The essentials: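 Pooled plasma, pH adjusted to 7.4±0.1 where needed, spiked to 2 μM compound (duplicate) and incubated at 37 °C. At each time point, protein was precipitated with ACN/MeOH stop solution containing internal standards; remaining compound quantified in supernatant by LC-MS/MS.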

Data set [4] deals with T1, human GLP1R. Briefly: Luciferase reporter assay, HEK293/CRE-Luc/hGLP1R cells (Example 11). The following applies: Table 11; Experiment A. It counts as cell-based. The arrangement: engineered to express full-length human GLP1R, cynomolgus GLP1R; expressed in transfected cells; host or cells: HEK293/CRE-Luc.
Data set [5] has as its target T1, human GLP1R. Description: Luciferase reporter assay, HEK293/CRE-Luc/hGLP1R (Example 17). More on the design: engineered to express full-length human GLP1R, cynomolgus GLP1R; expressed in transfected cells; host or cells: HEK293/CRE-Luc. Conditions: HEK293/CRE-Luc/hGLP1R; for EC50: payloads and linker-payloads, experiments A-E, M2361 repeated in each, read-out: EC50. It counts as cell-based. The procedure, abridged: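 HEK293 cells carrying a CRE-driven firefly luciferase reporter were exposed to 3-fold serial dilutions of payloads or linker-payloads (12 points, 0.2% DMSO final) for 4–6 h, then luminescence was read. EC50 came from a four-parameter logistic fit; S/N is top RLU over untreated wells, and relative potency and S/N are referenced to M2361.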

The mark [6] stands for this setting: ATDCs and references (Table 27).
[7] abbreviates: highest RLU / RLU of untreated wells.
The mark [8] stands for this setting: relative to M2361 of the same experiment.

Like-named read-outs stand apart in the source and are kept apart here. Where a SMILES comes first, the peptide text is derived from it. [ ]: non-standard residue; d: D form. The star is where a group is joined. Bip(2'-Et,4'-O(CH2)4NH2) = CCc1cc(OCCCCN)ccc1-c1ccc(C[C@H](N)C(=O)O)cc1; Malonyl(2,2-Me2,histaminyl) = CC(C)(C(=O)NCCc1cnc[nH]1)C(=O)*; Nva(5-(3,5-Me2Ph)) = Cc1cc(C)cc(CCC[C@H](N)C(=O)O)c1; Ala(1H-tetrazol-5-yl) = N[C@@H](Cc1nnn[nH]1)C(=O)O; αMePhe(2-F) = C[C@](N)(Cc1ccccc1F)C(=O)O Bounds are passed on as bounds.

T1 sequence (P43220 24-463): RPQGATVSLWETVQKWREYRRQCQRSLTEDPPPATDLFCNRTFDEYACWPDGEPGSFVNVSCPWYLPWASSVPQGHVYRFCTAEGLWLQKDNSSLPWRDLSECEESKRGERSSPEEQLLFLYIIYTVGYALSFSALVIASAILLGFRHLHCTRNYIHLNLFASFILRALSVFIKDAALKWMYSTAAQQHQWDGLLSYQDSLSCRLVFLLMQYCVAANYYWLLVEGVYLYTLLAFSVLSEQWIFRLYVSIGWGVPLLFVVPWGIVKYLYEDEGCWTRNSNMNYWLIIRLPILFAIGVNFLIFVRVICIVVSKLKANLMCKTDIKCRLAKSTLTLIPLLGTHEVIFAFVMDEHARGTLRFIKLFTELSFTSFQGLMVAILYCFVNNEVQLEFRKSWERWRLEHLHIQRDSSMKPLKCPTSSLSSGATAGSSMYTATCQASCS

On to `CCc1cc(OCCCCn2cc(COCCOCCOCCOCCOCCOCCOCCOCCN)nn2)ccc1-c1ccc(C[C@H](NC(=O)[C@H](CC(=O)O)NC(=O)[C@H](CO)NC(=O)[C@@H](NC(=O)C(C)(Cc2ccccc2F)NC(=O)[C@@H](NC(=O)CNC(=O)[C@H](Cc2nn[nH]n2)NC(=O)C(C)(C)C(=O)NCCc2cnc[nH]2)[C@@H](C)O)[C@@H](C)O)C(=O)N[C@@H](CCCc2cc(C)cc(C)c2)C(N)=O)cc1` (stereo partly shown) [LP11, NH2-PEG8-triazole-P8], for which, in data set [1], the EC50 is > 200 nM and the “HEK293/CRE-LUC S/N” value is recorded as 1.3. In data set [2] (Table 5C, read-out: GLP1R LUC EC50), the EC50 came out at 0.016 nM. Moreover, the EC50 in data set [2] (Table 9, […], read-out: HEK293/Myc-hGLP1R/Cre-Luc EC50) worked out at 0.016 nM. Besides, the half-life at 2 µM in data set [3] (pooled plasma, pH 7.4, Table 5C, read-out: Plasma Stability Human T½) is > 168 h. Further, the half-life at 2 µM in data set [3] (pooled plasma, pH 7.4, tested time C (3 days), 2 μM, 37° C., read-out: Human plasma stability assay T½ (converted)) is > 173 h. Further, in data set [4], the EC50 turned out to be 0.0161 nM, the “HEK293/CRE-LUC/hGLP1R Relative Potency (% P8 EC50)” value amounted to 33.1%, the “HEK293/CRE-LUC/hGLP1R Relative Signal:Noise (% P8)” value is 113.3% and the “HEK293/CRE-LUC/hGLP1R S/N” value is 74.5.
Consider `CCc1cc(OCCCCn2cc(COCCOCCOCCOCCOCCOCCOCCOCCN)nn2)ccc1-c1ccc(C[C@H](NC(=O)[C@H](CC(=O)O)NC(=O)[C@H](CO)NC(=O)[C@@H](NC(=O)[C@](C)(Cc2ccccc2F)NC(=O)[C@@H](NC(=O)CNC(=O)[C@H](Cc2nn[nH]n2)NC(=O)C(C)(C)C(=O)NCCc2cnc[nH]2)[C@@H](C)O)[C@@H](C)O)C(=O)N[C@@H](CCCc2cc(C)cc(C)c2)C(N)=O)cc1` [M3190], for which, in data set [5] (setting [6]), the “Relative Potency (% M2361 EC50)” value came to 44.0%, the “Relative Signal:Noise (% M2361)” value came to 96.4% and the S/N came to 62.0. The compound also returned a S/N in data set [5] (setting [7]) of 74.5. Moreover, in data set [5], the EC50 came to 0.0161 nM. For the same compound, in data set [5] (setting [8]), the “Relative Potency (% M2361 EC50)” value was determined as 33.1% and the “Relative Signal:Noise (% M2361)” value stood at 113.3%.
On to `CCc1cc(OCCCCN)ccc1-c1ccc(C[C@H](NC(=O)[C@H](CC(=O)O)NC(=O)[C@H](CO)NC(=O)[C@@H](NC(=O)[C@](C)(Cc2ccccc2F)NC(=O)[C@@H](NC(=O)CNC(=O)[C@H](Cc2nn[nH]n2)NC(=O)C(C)(C)C(=O)NCCc2cnc[nH]2)[C@@H](C)O)[C@@H](C)O)C(=O)N[C@@H](CCCc2cc(C)cc(C)c2)C(N)=O)cc1` [P9, (8S,14S,17S,20S,23S,26S)-8-((2H-tetrazol-5-yl)methyl)-26-(((S)-1-(((S)-1-amino-5-(3,5-dimethylphenyl)-1-oxopentan-2-yl)amino)-3-(4′-(4-aminobutoxy)-2′-ethyl-[1,1′-biphenyl]-4-yl)-1-oxopropan-2-yl)carbamoyl)-17-(2-fluorobenzyl)-14,20-bis((R)-1-hydroxyethyl)-23-(hydroxymethyl)-1-(1H-imidazol-5-yl)-5,5,17-trimethyl-4,6,9,12,15,18,21,24-octaoxo-3,7,10,13,16,19,22,25-octaazaoctacosan-28-oic acid] ({Malonyl(2,2-Me2,histaminyl)}-[Ala(1H-tetrazol-5-yl)]GT[αMePhe(2-F)]TSD[Bip(2'-Et,4'-O(CH2)4NH2)][Nva(5-(3,5-Me2Ph))]-NH2), for which, in data set [1], the EC50 was > 200 nM and the “HEK293/CRE-LUC S/N” value stood at 1.3. This compound also registered a S/N in data set [5] (setting [7]) of 75.2. Moreover, in data set [5], the EC50 was found to be 0.00397 nM. For the same compound, in data set [5] (setting [8]), the “Relative Potency (% M2361 EC50)” value came out at 133.8% and the “Relative Signal:Noise (% M2361)” value is reported as 114.3%. Also, in data set [2] (Table 9, 5.5 h, read-out: HEK293/Myc-hGLP1R/Cre-Luc EC50), the EC50 turned out to be 0.00332 nM. The half-life at 2 µM in data set [3] (plasma, pH 7.4, tested time A (1 day per footnote), 2 μM, 37° C., read-out: Human plasma stability assay T½ (converted)) was > 57.8 h. For the same compound, in data set [4], the EC50 worked out at 0.00397 nM, the “HEK293/CRE-LUC/hGLP1R Relative Potency (% P8 EC50)” value worked out at 133.8% and the “HEK293/CRE-LUC/hGLP1R S/N” value amounted to 75.2.

Values taken from patent US20230330254A1 (Regeneron Pharmaceuticals, Inc., priority 2022, published 2023).
